Like-named read-outs stand apart in the source and are kept apart here.
Experiments:
A549 = assay: In vitro anti-proliferative MTT assay, A549; assay type: cell-based, human; settings: for IC50: Homo sapiens; for HillSlope (best-fit value), A549 / LogIC50 (best-fit value), A549: supplement IC50 graph
Experimental: These two cell lines were selected in this test due to the overexpression of EGFR in human lung and colon cancer cell lines[48]^,[49]. The tested cells were reported to have a high expression level of EGFR. […]
(§1) 1.1. In vitro antiproliferative activities
The in vitro antiproliferative activities of all the synthesized compounds against two human […]
evaluated quantitatively as described in the literature, using MTT assay protocol . two […]
proliferative activity was assessed quantitatively as follows.
(§2) Human cancer cell lines were dropped in 96 -well plates at a density of 3-8 × 10^3 cells/well.
Next, the wells were incubated for 12 h in a 5% CO 2 incubator at 37 °C. Then, for each well, the growth medium was exchanged with 0.1 ml of fresh medium containing graded concentrations of the test compounds to be or equal DMSO and incubated for two days. Then 10 μl MTT solution ([…]) was added to each well, and the cells were incubated for additional 4 h. The crystals of MTT-formazan were dissolved in 100 μl of DMSO; the absorbance of each well was measured at 490 nm using an automatic ELISA reader system (TECAN, CHE). The IC 50 values were calculated using the nonlinear regression fitting models (Graph Pad, Prism Version 5). The data represented the mean of three independent experiments in triplicate and were expressed as means ± SD. The […]
(§3) The results were expressed as growth inhibitory concentration (IC50) values and […]

HCT-116 = assay: In vitro anti-proliferative MTT assay, HCT-116; assay type: cell-based, human; settings: for IC50: Homo sapiens, HCT-116, mean of three experiments, read-out: In vitro cytotoxicity IC50, HCT-116; for IC50 / anti-proliferative activity against HCT-116 in words: MTT; for HillSlope (best-fit value), HCT-116 / LogIC50 (best-fit value), HCT-116: supplement IC50 graph
Experimental: The cytotoxic activities of the synthesised compounds were assessed against two human cancer cell lines (lung, A549) and (colon HCT-116) using an MTT assay. These two cell lines were selected in this test due to the overexpression of EGFR in human lung and colon cancer cell lines[48]^,[49]. The tested cells were reported to have a high expression level of EGFR.
In vitro cytotoxicity was carried out for the synthesised compounds against A549, HCT-116, and WI-38 cell lines using the MTT assay protocol[52–55] as described in Supplementary data. […]
as §1
The in vitro antiproliferative activities of all the synthesized compounds against two human tumor cell lines namely, (lung, A549) and (colon HCT-116) and one normal cell line (WI-38) were evaluated quantitatively as described in the literature, using MTT assay protocol . two commercially available drugs (erlotinib) were used in this test as positive controls. The anti-proliferative activity was assessed quantitatively as follows.
as §2
Next, the wells were incubated for 12 h in a 5% CO 2 incubator at 37 °C. Then, for each well, the growth medium was exchanged with 0.1 ml of fresh medium containing graded concentrations of the test compounds to be or equal DMSO and incubated for two days. Then 10 μl MTT solution ([…]) was added to each well, and the cells were incubated for additional 4 h. The crystals of MTT-formazan were dissolved in 100 μl of DMSO; the absorbance of each well was measured at 490 nm using an automatic ELISA reader system (TECAN, CHE). The IC 50 values were calculated using the nonlinear regression fitting models (Graph Pad, Prism Version 5). The data represented the mean of three independent experiments in triplicate and were expressed as means ± SD. The IC50 value was defined as the concentration at which 50% of the cells could survive.
as §3

EGFR^WT = target: T1, EGFR^WT (Homo sapiens, UniProt P00533); assay: EGFR^WT kinase inhibitory assay (HTRF); assay type: biochemical
T1 construct: purchased Sigma
T1 sequence (P00533 25-1210): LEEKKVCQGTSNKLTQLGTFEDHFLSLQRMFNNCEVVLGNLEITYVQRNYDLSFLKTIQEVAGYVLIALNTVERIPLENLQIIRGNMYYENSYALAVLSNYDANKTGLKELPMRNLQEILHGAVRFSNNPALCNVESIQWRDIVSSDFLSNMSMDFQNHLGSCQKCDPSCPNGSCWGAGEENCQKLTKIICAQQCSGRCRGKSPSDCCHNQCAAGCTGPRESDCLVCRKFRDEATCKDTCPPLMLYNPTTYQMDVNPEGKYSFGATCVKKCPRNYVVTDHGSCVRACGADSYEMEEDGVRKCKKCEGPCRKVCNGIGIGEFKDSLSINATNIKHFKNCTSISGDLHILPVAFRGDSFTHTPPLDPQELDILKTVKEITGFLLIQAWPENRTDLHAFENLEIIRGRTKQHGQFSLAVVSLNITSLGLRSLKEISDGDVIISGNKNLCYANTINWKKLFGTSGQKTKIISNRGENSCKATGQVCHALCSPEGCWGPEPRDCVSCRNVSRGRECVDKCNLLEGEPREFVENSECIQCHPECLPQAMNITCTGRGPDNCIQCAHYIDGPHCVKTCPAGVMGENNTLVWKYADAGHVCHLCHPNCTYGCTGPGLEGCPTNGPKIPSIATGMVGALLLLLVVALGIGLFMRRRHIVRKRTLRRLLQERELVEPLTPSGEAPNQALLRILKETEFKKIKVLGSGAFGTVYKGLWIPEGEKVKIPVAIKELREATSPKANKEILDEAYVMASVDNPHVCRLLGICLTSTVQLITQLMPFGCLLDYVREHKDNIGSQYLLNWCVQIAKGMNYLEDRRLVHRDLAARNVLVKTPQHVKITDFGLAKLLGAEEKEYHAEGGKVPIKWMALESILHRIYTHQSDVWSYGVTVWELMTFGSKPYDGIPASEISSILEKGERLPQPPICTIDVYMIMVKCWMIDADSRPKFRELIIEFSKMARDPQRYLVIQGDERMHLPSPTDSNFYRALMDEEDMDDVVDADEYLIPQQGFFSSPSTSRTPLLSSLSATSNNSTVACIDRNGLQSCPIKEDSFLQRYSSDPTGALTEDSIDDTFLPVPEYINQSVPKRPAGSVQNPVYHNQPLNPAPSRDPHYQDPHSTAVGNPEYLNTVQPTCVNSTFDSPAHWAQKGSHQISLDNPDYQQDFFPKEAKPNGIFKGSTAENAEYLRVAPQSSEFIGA
Experimental: In vitro EGFR inhibitory activity was assessed using a Homogeneous time-resolved fluorescence (HTRF) assay[56] as described in Supplementary data.
4.1.1. EGFRWT and EGFRT790M kinase inhibitory assay […]
against four cancer cell lines were further examined for their inhibitory activities against both […]
Homogeneous time resolved fluorescence (HTRF) assay was applied in this test. EGFRWT, EGFRT790M (Sigma). firstly, the EGFRWT and/or EGFRT790M and their substrates were incubated with the tested compounds in enzymatic buffer for 5 min. […]
the enzymatic reaction. The assay was conducted for 30 min at room temperature. The reaction was stopped by addition of detection reagents which contain EDTA. The detection step continued […]
experiments were performed for each concentration. […]

in vitro = settings: human, WI-38 normal cells
Experimental: (§4) Next, the wells were incubated for 12 h in a 5% CO 2 incubator at 37 °C. Then, for each well, the growth medium was exchanged with 0.1 ml of fresh medium containing graded concentrations of the test compounds to be or equal DMSO and incubated for two days. Then 10 μl MTT solution (5 μg/ml) was added to each well, and the cells were incubated for additional 4 h. The crystals of MTT-formazan were dissolved in 100 μl of DMSO; the absorbance of each well was measured at 490 nm using an automatic ELISA reader system (TECAN, CHE). The IC 50 values were calculated using the nonlinear regression fitting models (Graph Pad, Prism Version 5). The data represented the mean of three independent experiments in triplicate and were expressed as means ± SD.

WI-38 = assay: In vitro cytotoxicity against normal cells (MTT), WI-38; settings: supplement graph
Experimental: as §4

[1] = A549, MTT, mean of three experiments, read-out: In vitro cytotoxicity IC50, A549
[2] = HTRF, mean of three experiments, read-out: EGFR^WT IC50
[3] = supplement graph, axis Log (nM)
[4] = supplement graph, axis Log (nM), read-out: IC50 (best-fit value of graph), EGFR inhibition

| IC50 (EGFR^WT; [2]) [nM] | HillSlope (best-fit value), EGFR inhibition (EGFR^WT; supplement graph) | LogIC50 (best-fit value), EGFR inhibition (EGFR^WT; [3]) | IC50 (EGFR^WT; [4]) [nM] | IC50 (A549; A549, read-out: IC50 (best-fit value of graph), A549) [µM] | IC50 at 2 days (in vitro) [µM] | Structure (SMILES) | IC50 (A549; [1]) [µM] | HillSlope (best-fit value), A549 (A549) | LogIC50 (best-fit value), A549 (A549) | IC50 (HCT-116) [µM] | anti-proliferative activity against HCT-116 in words (HCT-116) | HillSlope (best-fit value), HCT-116 (HCT-116) | LogIC50 (best-fit value), HCT-116 (HCT-116) | HillSlope (best-fit value), WI-38 (WI-38) | LogIC50 (best-fit value), WI-38 (WI-38) |
| --- | --- | --- | --- | --- | --- | --- | --- | --- | --- | --- | --- | --- | --- | --- | --- |
|  |  |  |  |  |  | CCNc1nc(Nc2ccccc2)nc2c1cnn2-c1ccccc1 [Compound 7a, N4-Ethyl-N6,1-diphenyl-1H-pyrazolo[3,4-d]pyrimidine-4,6-diamine] | 64.4 | -0.4567 | 1.809 | 29.6 | moderate | -0.4339 | 1.472 |  |  |
|  |  |  |  |  |  | CCCNc1nc(Nc2ccccc2)nc2c1cnn2-c1ccccc1 [Compound 7b, N4-Propyl-N6,1-diphenyl-1H-pyrazolo[3,4-d]pyrimidine-4,6-diamine] | 67.4 | -0.4700 | 1.829 | 31.5 | moderate | -0.4549 | 1.498 |  |  |
| 26 | -0.3385 | 1.415 | 26 |  |  | c1ccc(Nc2nc(Nc3ccccc3)c3cnn(-c4ccccc4)c3n2)cc1 [Compound 8, N4,N6,1-Triphenyl-1H-pyrazolo[3,4-d]pyrimidine-4,6-diamine] | 16.8 | -0.3605 | 1.224 | 24.2 |  | -0.4231 | 1.383 |  |  |
|  |  |  |  |  |  | c1ccc(Nc2nc(NC3CCCCC3)c3cnn(-c4ccccc4)c3n2)cc1 [Compound 9, N4-Cyclohexyl-N6,1-diphenyl-1H-pyrazolo[3,4-d]pyrimidine-4,6-diamine] | 29.1 | -0.3708 | 1.463 | 39.4 |  | -0.3946 | 1.595 |  |  |
| 23 | -0.3619 | 1.366 | 23.2 |  |  | NNc1nc(Nc2ccccc2)nc2c1cnn2-c1ccccc1 [Compound 10, 4-Hydrazinyl-N,1-diphenyl-1H-pyrazolo[3,4-d]pyrimidin-6-amine] | 15.7 | -0.3765 | 1.195 | 18.8 |  | -0.3276 | 1.274 |  |  |
|  |  |  |  |  |  | COc1ccc(C=NNc2nc(Nc3ccccc3)nc3c2cnn3-c2ccccc2)cc1 [Compound 11a, 4–(2-(4-Methoxybenzylidene)hydrazinyl)-N,1-diphenyl-1H-pyrazolo[3,4-d] pyrimidin-6-amine] | 47.7 | -0.4514 | 1.678 | 46.2 |  | -0.4760 | 1.664 |  |  |
|  |  |  |  |  |  | Clc1ccc(C=NNc2nc(Nc3ccccc3)nc3c2cnn3-c2ccccc2)cc1 [Compound 11b, 4–(2-(4-Chlorobenzylidene)hydrazinyl)-N,1-diphenyl-1H-pyrazolo[3,4-d]pyrimidin-6-amine] | 75.7 | -0.3813 | 1.879 | 75.1 |  | -0.5652 | 1.876 |  |  |
| 21 | -0.3296 | 1.321 | 21 |  |  | CC(=NNc1nc(Nc2ccccc2)nc2c1cnn2-c1ccccc1)c1ccccc1 [Compound 12a, N,1-Diphenyl-4–(2-(1-phenylethylidene)hydrazinyl)-1H-pyrazolo[3,4-d]pyrimidin-6-amine] | 13.7 | -0.3395 | 1.137 | 23.3 |  | -0.4063 | 1.368 |  |  |
|  |  |  |  |  |  | CC(=NNc1nc(Nc2ccccc2)nc2c1cnn2-c1ccccc1)c1ccc(C)cc1 [Compound 12c, N,1-Diphenyl-4–(2-(1-(p-tolyl)ethylidene)hydrazinyl)-1H-pyrazolo [3,4-d] pyrimidin-6-amine] | 28.8 | -0.4080 | 1.459 | 28.7 | moderate | -0.4467 | 1.458 |  |  |
|  |  |  |  |  |  | CCNC(=S)NNc1nc(Nc2ccccc2)nc2c1cnn2-c1ccccc1 [Compound 13a, N-Ethyl-2–(1-phenyl-6-(phenylamino)-1H-pyrazolo[3,4-d]pyrimidin-4-yl) hydrazine-1-carbothioamide] | 43.1 | -0.4011 | 1.635 | 27 | moderate | -0.4156 | 1.432 |  |  |
|  |  |  |  |  |  | CCCNC(=S)NNc1nc(Nc2ccccc2)nc2c1cnn2-c1ccccc1 [Compound 13b, 2–(1-Phenyl-6-(phenylamino)-1H-pyrazolo[3,4-d]pyrimidin-4-yl)-N-propyl hydrazine-1-carbothioamide] | 15.4 | -0.3921 | 1.186 | 36.4 |  | -0.3703 | 1.562 |  |  |
|  |  |  |  | 6.78 | 33.8 | C#Cc1cccc(Nc2ncnc3cc(OCCOC)c(OCCOC)cc23)c1 [Erlotinib, reference compound] | 6.77 | -0.3354 | 0.8309 | 19.2 |  | -0.3370 | 1.284 | -0.4750 | 1.528 |

From paper PMC9466626, “Discovery of new 1H-pyrazolo[3,4-d]pyrimidine derivatives as anticancer agents targeting EGFR^WT and EGFR^T790M” (Journal of Enzyme Inhibition and Medicinal Chemistry, 2022)
